Measured values reported in patent publication US20190046486A1, “COMPOSITIONS AND METHODS FOR THE TREATMENT OF NEURONAL INJURY” (AXCELLA HEALTH INC., priority 2017, published 2019).

Legend:
IL-6 = IL-6 levels in LPS-activated primary microglia cells treated with amino acid combinations; format: cell-based, mouse; conditions: for IL-6 Measurements, Mean: mouse microglia supernatant, 12 h after LPS 100 ng/ml, LIV 2.5 mM, NAC, ALCAR, CR 1 mM each, 6 replicates
Method: (§1) Pups were decapitated, brains removed from the skulls, cortices dissected and collected in Calcium and Magnesium free Hanks Balanced Salt Solution (CMF-HBSS) on ice. Cortices were chopped with a sterile razor blade in chop solution (CMF-HBSS) and digested in 2 ml digestion solution (0.25% trypsin in CMF-HBSS) in a 15 ml sterile plastic tube for 20 minutes at 37° C. in a water bath. After removing as much as possible of the digestion solution (approximately 1 ml), the digestion was stopped by adding 3 ml stop solution (0.01% DNaseI and 0.5% trypsin inhibitor in FCS). Cortices were triturated 10-15 times with a fire-polished Pasteur pipette and centrifuged at 300 g for 5 minutes. The pellet was resuspended in 1 ml nutrition medium (10% FCS, 1% Penicillin-Streptomycin, 2 mM L-glutamine in DMEM) per pup. Cells were seeded into poly-D-lysine pre-coated T75 flasks containing 14 ml nutrition medium (one pup per flask). Medium was changed every 3 to 4 days and cells were cultured at 37° C., 95% humidity and 5% CO2 for approximately 14 days before harvesting the microglia.
(§2) After approximately 14 days of cultivation microglia cells were harvested by shaking the T75 flasks at 200 rpm at 37° C. for 2 h. After visual inspection confirming that the microglia cells had detached, the supernatants containing the microglia were transferred to 50 ml tubes (supernatant from 1 flask into 1 tube) and centrifuged at 300 g for 10 minutes. The pelleted microglia cells were resuspended in 2 ml of nutrition medium. Microglia cells were seeded into uncoated plates 1×10^5 cells/well (96 well plate) and incubated for 2 h at 37° C. Then the plates were rocked at 100 rpm for 5 minutes to detach the oligodendrocytes. The medium containing the oligodendrocytes was exchanged with fresh medium and microglia cells were incubated for 2 days at 37° C. before LPS treatment. 24 h before LPS stimulation single amino acids and combinations were administered. Next, 1 h before LPS stimulation, medium was changed to treatment medium (DMEM, 5% FBS, 2 mM L-glutamine) containing amino acids or combinations. Cells were maintained in treatment medium for the remaining culture period. One hour after changing cells to treatment medium, cells were stimulated with LPS (100 ng/ml) for 12 h in total. Cells treated with vehicle, LPS alone served as controls.
(§3) After 12 h of LPS stimulation, cell supernatants were collected and cytokines IL-6 and TNFα were measured. […]
(§4) Levels of TNFα an IL-6 were measured in supernatants of primary microglia cells collected 12 h after LPS stimulation. Cytokines were measured by an immunosorbent assay (U-PLEX Custom Mouse Cytokine, Mesoscale Discovery) according to the instructions of the manufacturer and evaluated in comparison to calibration curves provided in the kit. […]

TNFα = TNFα levels in LPS-activated primary microglia cells treated with amino acid combinations; format: cell-based, mouse; conditions: for TNFα Measurements, Mean: mouse microglia supernatant, 12 h after LPS 100 ng/ml, LIV 2.5 mM, NAC, ALCAR, CR 1 mM each, 6 replicates
Method: as §1, §2, §3, §4

[1] = mouse microglia activated with LPS

| SMILES | IL-6 Measurements, Mean (IL-6) [pg per ml] | TNFα Measurements, Mean (TNFα) [pg per ml] | IL-6 protein level compared to vehicle treated with LPS stimulus (IL-6; [1]) | TNFα protein level compared to vehicle treated with LPS stimulus (TNFα; [1]) |
| --- | --- | --- | --- | --- |
| CN(CC(=O)O)C(=N)N [CR, creatine] | 56492 | 17884 | – | – |
| CC(=O)N[C@@H](CS)C(=O)O [NAC, N-acetylcysteine] | 46749 | 14814 | reduced | reduced |
| CC(=O)O[C@H](CC(=O)[O-])C[N+](C)(C)C [ALCAR, acetyl-1-carnitine] | 59600 | 21897 | – | – |
